Values quoted from earlier work as cited in patent US10414795B2, “Techniques of preparing collagen active peptides” (Technical Institute of Physics and Chemistry, Chinese …, priority 2016, dated 2019).

Tested on: human breast cancer cell line MCF-7
Details: read-out: IC50, dose-dependent inhibition effect

Row | Sequence | IC50
1 | LPHVLTPEAGAT [Leu-Pro-His-Val-Leu-Thr-Pro-Glu-Ala-Gly-Ala-Thr, anticancer peptide (1206 Da) from tuna dark muscle byproduct hydrolysate] | 8.1 µM
2 | PTAEGVYMVT [Pro-Thr-Ala-Glu-Gly-Val-Tyr-Met-Val-Thr, anticancer peptide (1124 Da) from tuna dark muscle byproduct hydrolysate] | 8.8 µM
